Experimental data reported in PubChem BioAssay (NCI).
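Values below derive from 48-hour exposures of cells grown in 96-well plates, with endpoints linearly interpolated between the two concentrations bracketing the appropriate inhibition level. TGI: concentration producing complete growth inhibition.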

Tests used:
Assay in all cases: inhibition of tumour cell growth, NCI panel, 48 h
[1] = tested on: NCI/ADR-RES ovarian
[2] = tested on: MCF7 breast
[3] = tested on: NCI-H460 lung
[4] = tested on: M14 melanoma
[5] = tested on: DU-145 prostate
[6] = tested on: BT-549 breast
[7] = tested on: HCT-116 colon
[8] = tested on: UACC-257 melanoma
[9] = tested on: SW-620 colon
[10] = tested on: KM12 colon
[11] = tested on: RXF 393 renal
[12] = tested on: MDA-MB-435
[13] = tested on: HCT-15 colon
[14] = tested on: MALME-3M melanoma
[15] = tested on: MOLT-4 leukemia
[16] = tested on: 786-0 renal
[17] = tested on: IGROV1 ovarian
[18] = tested on: K-562 leukemia
[19] = tested on: PC-3 prostate
[20] = tested on: MDA-N
[21] = tested on: HOP-62 NSCLC
[22] = tested on: OVCAR-5 ovarian
[23] = tested on: OVCAR-3 ovarian
[24] = tested on: SNB-19 CNS
[25] = tested on: HT29 colon
[26] = tested on: SNB-75 CNS
[27] = tested on: A549 NSCLC
[28] = tested on: SK-MEL-2 melanoma
[29] = tested on: UO-31 renal
[30] = tested on: SK-OV-3 ovarian
[31] = tested on: SF-295 CNS
[32] = tested on: UACC-62 melanoma
[33] = tested on: MDA-MB-231 breast
[34] = tested on: SN12C renal
[35] = tested on: HOP-92 NSCLC
[36] = tested on: NCI-H23 lung
[37] = tested on: NCI-H226 lung
[38] = tested on: SR leukemia
[39] = tested on: RPMI-8226 leukemia
[40] = tested on: EKVX NSCLC
[41] = tested on: SF-539 CNS
[42] = tested on: HS 578T breast
[43] = tested on: LOX IMVI melanoma
[44] = tested on: T-47D breast
[45] = tested on: SK-MEL-28 melanoma
[46] = tested on: COLO 205 colon
[47] = tested on: CCRF-CEM leukemia
[48] = tested on: OVCAR-8 ovarian
[49] = tested on: SK-MEL-5 melanoma
[50] = tested on: TK-10 renal
[51] = tested on: ACHN renal
[52] = tested on: OVCAR-4 ovarian
[53] = tested on: A498 renal
[54] = tested on: U251 CNS
[55] = tested on: SF-268 CNS
[56] = tested on: CAKI-1 renal
[57] = tested on: HL-60(TB) leukemia
[58] = tested on: NCI-H522 lung
[59] = tested on: HCC-2998 colon

O=C(N/S(=N/S(=O)(=O)c1ccc(Br)cc1)C(Cl)(Cl)Cl)c1ccccc1 (stereo not drawn)
TGI [1]: > 100 µM
TGI [2]: > 100 µM
TGI [3]: > 100 µM
TGI [4]: > 100 µM
TGI [5]: > 100 µM
TGI [6]: > 100 µM
TGI [7]: > 100 µM
TGI [8]: > 100 µM
TGI [9]: > 100 µM
TGI [10]: > 100 µM
TGI [11]: > 100 µM
TGI [12]: > 100 µM
TGI [13]: > 100 µM
TGI [14]: > 100 µM
TGI [15]: > 100 µM
TGI [16]: > 100 µM
TGI [17]: > 100 µM
TGI [18]: > 100 µM
TGI [19]: > 100 µM
TGI [20]: > 100 µM
TGI [21]: > 100 µM
TGI [22]: > 100 µM
TGI [23]: > 100 µM
TGI [24]: > 100 µM
TGI [25]: > 100 µM
TGI [26]: > 100 µM
TGI [27]: > 100 µM
TGI [28]: > 100 µM
TGI [29]: > 100 µM
TGI [30]: > 100 µM
TGI [31]: > 100 µM
TGI [32]: > 100 µM
TGI [33]: > 100 µM
TGI [34]: > 100 µM
TGI [35]: 82 µM
TGI [36]: > 100 µM
TGI [37]: > 100 µM
TGI [38]: > 100 µM
TGI [39]: > 100 µM
TGI [40]: > 100 µM
TGI [41]: > 100 µM
TGI [42]: > 100 µM
TGI [43]: > 100 µM
TGI [44]: > 100 µM
TGI [45]: > 100 µM
TGI [46]: > 100 µM
TGI [47]: > 100 µM
TGI [48]: > 100 µM
TGI [49]: > 100 µM
TGI [50]: > 100 µM
TGI [51]: > 100 µM
TGI [52]: > 100 µM
TGI [53]: > 100 µM
TGI [54]: > 100 µM
TGI [55]: > 100 µM

COc1ccc(NC(=S)N/N=C/c2cccc(C)n2)cc1
TGI [1]: > 26.6 µM
TGI [2]: > 100 µM
TGI [3]: > 42.9 µM
TGI [4]: 11.2 µM
TGI [5]: > 67.1 µM
TGI [6]: > 71 µM
TGI [7]: > 100 µM
TGI [9]: > 100 µM
TGI [56]: > 79 µM
TGI [10]: > 100 µM
TGI [12]: > 100 µM
TGI [13]: > 100 µM
TGI [14]: > 100 µM
TGI [15]: > 29.3 µM
TGI [16]: > 65 µM
TGI [17]: 24.1 µM
TGI [18]: > 100 µM
TGI [19]: > 100 µM
TGI [20]: > 100 µM
TGI [21]: 38.4 µM
TGI [22]: > 100 µM
TGI [23]: > 100 µM
TGI [24]: > 100 µM
TGI [25]: 14.9 µM
TGI [26]: 81.8 µM
TGI [57]: 6.06 µM
TGI [27]: > 100 µM
TGI [28]: > 100 µM
TGI [29]: 18 µM
TGI [30]: 46.2 µM
TGI [31]: 40.3 µM
TGI [32]: 10.7 µM
TGI [33]: > 100 µM
TGI [34]: > 100 µM
TGI [35]: > 85.5 µM
TGI [36]: > 100 µM
TGI [58]: 5.73 µM
TGI [37]: 53.8 µM
TGI [38]: > 37.5 µM
TGI [59]: > 100 µM
TGI [39]: 62.1 µM
TGI [40]: > 100 µM
TGI [41]: 34.2 µM
TGI [42]: > 100 µM
TGI [43]: 33.2 µM
TGI [44]: > 100 µM
TGI [45]: > 100 µM
TGI [46]: > 39.6 µM
TGI [47]: > 54 µM
TGI [48]: > 35.4 µM
TGI [49]: > 36.5 µM
TGI [50]: > 100 µM
TGI [51]: 19.5 µM
TGI [52]: > 100 µM
TGI [53]: 90 µM
TGI [54]: 24.6 µM
TGI [55]: > 66.9 µM

N#CCN1c2ccccc2CCC1Cl (stereo not drawn)
TGI [1]: > 10 µM
TGI [2]: > 10 µM
TGI [3]: > 10 µM
TGI [4]: > 10 µM
TGI [5]: > 10 µM
TGI [6]: > 10 µM
TGI [7]: > 10 µM
TGI [8]: > 10 µM
TGI [9]: > 10 µM
TGI [56]: > 10 µM
TGI [10]: > 10 µM
TGI [12]: > 10 µM
TGI [13]: > 10 µM
TGI [14]: > 10 µM
TGI [15]: > 10 µM
TGI [16]: > 10 µM
TGI [17]: > 10 µM
TGI [18]: > 10 µM
TGI [19]: > 10 µM
TGI [20]: > 10 µM
TGI [21]: > 10 µM
TGI [22]: > 10 µM
TGI [23]: > 10 µM
TGI [24]: > 10 µM
TGI [25]: > 10 µM
TGI [27]: > 10 µM
TGI [29]: > 10 µM
TGI [30]: > 10 µM
TGI [31]: > 10 µM
TGI [32]: > 10 µM
TGI [33]: > 10 µM
TGI [34]: > 10 µM
TGI [35]: > 10 µM
TGI [36]: > 10 µM
TGI [58]: > 10 µM
TGI [37]: > 10 µM
TGI [38]: > 10 µM
TGI [59]: > 10 µM
TGI [39]: > 10 µM
TGI [40]: > 10 µM
TGI [41]: > 10 µM
TGI [42]: > 10 µM
TGI [43]: > 10 µM
TGI [44]: > 10 µM
TGI [45]: > 10 µM
TGI [46]: > 10 µM
TGI [47]: > 10 µM
TGI [48]: > 10 µM
TGI [49]: > 10 µM
TGI [50]: > 10 µM
TGI [51]: > 10 µM
TGI [52]: > 10 µM
TGI [53]: > 10 µM
TGI [54]: > 10 µM
TGI [55]: > 10 µM

COC(OC)(c1ccccc1)C(Br)Br
TGI [1]: > 100 µM
TGI [2]: > 100 µM
TGI [3]: > 100 µM
TGI [4]: 37.8 µM
TGI [5]: > 100 µM
TGI [6]: > 100 µM
TGI [7]: 37.2 µM
TGI [8]: > 100 µM
TGI [9]: 34.5 µM
TGI [56]: 48.5 µM
TGI [10]: > 100 µM
TGI [12]: > 100 µM
TGI [13]: 42.4 µM
TGI [14]: 43.8 µM
TGI [15]: 74.2 µM
TGI [16]: 69.4 µM
TGI [17]: > 100 µM
TGI [18]: 71.6 µM
TGI [19]: > 100 µM
TGI [20]: > 100 µM
TGI [21]: > 100 µM
TGI [22]: > 100 µM
TGI [23]: > 100 µM
TGI [24]: > 100 µM
TGI [25]: > 100 µM
TGI [26]: > 100 µM
TGI [57]: > 100 µM
TGI [27]: > 100 µM
TGI [28]: > 100 µM
TGI [29]: > 100 µM
TGI [30]: > 100 µM
TGI [31]: > 100 µM
TGI [32]: > 100 µM
TGI [33]: > 100 µM
TGI [34]: > 100 µM
TGI [36]: > 100 µM
TGI [58]: 33 µM
TGI [37]: > 100 µM
TGI [38]: 70.6 µM
TGI [59]: > 100 µM
TGI [39]: > 100 µM
TGI [40]: > 100 µM
TGI [42]: > 100 µM
TGI [43]: > 100 µM
TGI [44]: > 100 µM
TGI [45]: > 100 µM
TGI [46]: 39.2 µM
TGI [47]: 42.6 µM
TGI [48]: > 100 µM
TGI [49]: > 100 µM
TGI [51]: > 100 µM
TGI [53]: > 100 µM
TGI [54]: > 100 µM
TGI [55]: > 100 µM

C=C1CC(Cn2ccc(=O)[nH]c2=O)(c2ccc(OC)cc2)OC1=O (stereo not drawn)
TGI [1]: 38.9 µM
TGI [2]: 16 µM
TGI [3]: > 67.6 µM
TGI [4]: 21.2 µM
TGI [5]: 31.3 µM
TGI [6]: 24.6 µM
TGI [7]: 20 µM
TGI [8]: 35.3 µM
TGI [9]: 16.1 µM
TGI [56]: 19.6 µM
TGI [10]: 35.5 µM
TGI [12]: 30.8 µM
TGI [13]: 31.5 µM
TGI [14]: 27 µM
TGI [15]: 8.25 µM
TGI [16]: 25.2 µM
TGI [17]: 31.6 µM
TGI [18]: 16 µM
TGI [19]: 30.6 µM
TGI [20]: 28 µM
TGI [21]: > 100 µM
TGI [22]: 32.2 µM
TGI [23]: 36.1 µM
TGI [24]: > 100 µM
TGI [25]: 31.2 µM
TGI [57]: 7.45 µM
TGI [27]: 59.2 µM
TGI [28]: 27.1 µM
TGI [29]: 31.7 µM
TGI [30]: > 92.9 µM
TGI [31]: > 100 µM
TGI [32]: 27.9 µM
TGI [33]: 33.2 µM
TGI [34]: 19 µM
TGI [35]: 4.58 µM
TGI [36]: 29.2 µM
TGI [58]: 4.4 µM
TGI [37]: 39.3 µM
TGI [38]: 10.5 µM
TGI [59]: 17.5 µM
TGI [39]: 12 µM
TGI [40]: 41.5 µM
TGI [41]: 41.2 µM
TGI [42]: 56.9 µM
TGI [43]: 27.8 µM
TGI [44]: 39.8 µM
TGI [45]: 33 µM
TGI [46]: 14.5 µM
TGI [47]: 10.4 µM
TGI [48]: 46.8 µM
TGI [49]: 26.8 µM
TGI [50]: 25.2 µM
TGI [51]: 33 µM
TGI [52]: 35.1 µM
TGI [53]: 31.6 µM
TGI [54]: 53.4 µM
TGI [55]: 51.1 µM
